According to PubChem BioAssay AID1919003 (Molecular Pharmacology Branch, DTP, NCI, 2023):
“And” between values parts separate entries of the source, which are not always exact repeats. Equal entries are not always repeated.

Tested on: 786-0 complex spheroids with HUVEC/MSC, growth % test/control
Assay: Anticancer human tumor 786-0 cell line growth inhibition [AhR];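 further: compound exposure lasted seven days before the read-out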
Conditions: for viability, T/C: stronger effect = lower value
Method in brief: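 Spheroids combined tumor cells with HUVEC endothelial cells and human MSCs as stroma. AhR antagonists were paired with standard or investigational drugs, each dosed in half-log steps down from near clinical Cmax, or from 10 microM where Cmax was unknown.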

[1] = curve of first compound, second compound 0.1 µM
[2] = curve of first compound, second compound 0.316 µM
[3] = curve of first compound, second compound 1 µM
[4] = curve of first compound, second compound 3.16 µM
[5] = curve of first compound, second compound 10 µM
[6] = second compound 0.1 µM, first compound 0.0316 µM
[7] = second compound 0.1 µM, first compound 0.1 µM
[8] = second compound 0.1 µM, first compound 0.316 µM
[9] = second compound 0.1 µM, first compound 1 µM
[10] = second compound 0.1 µM, first compound 3.16 µM
[11] = second compound 0.1 µM, first compound 10 µM
[12] = second compound 0.316 µM, first compound 0.0316 µM
[13] = second compound 0.316 µM, first compound 0.1 µM
[14] = second compound 0.316 µM, first compound 0.316 µM
[15] = second compound 0.316 µM, first compound 1 µM
[16] = second compound 0.316 µM, first compound 3.16 µM
[17] = second compound 0.316 µM, first compound 10 µM
[18] = second compound 1 µM, first compound 0.0316 µM
[19] = second compound 1 µM, first compound 0.1 µM
[20] = second compound 1 µM, first compound 0.316 µM
[21] = second compound 1 µM, first compound 1 µM
[22] = second compound 1 µM, first compound 3.16 µM
[23] = second compound 1 µM, first compound 10 µM
[24] = second compound 3.16 µM, first compound 0.0316 µM
[25] = second compound 3.16 µM, first compound 0.1 µM
[26] = second compound 3.16 µM, first compound 0.316 µM
[27] = second compound 3.16 µM, first compound 1 µM
[28] = second compound 3.16 µM, first compound 3.16 µM
[29] = second compound 3.16 µM, first compound 10 µM
[30] = second compound 10 µM, first compound 0.0316 µM
[31] = second compound 10 µM, first compound 0.1 µM
[32] = second compound 10 µM, first compound 0.316 µM
[33] = second compound 10 µM, first compound 1 µM
[34] = second compound 10 µM, first compound 3.16 µM
[35] = second compound 10 µM, first compound 10 µM

COc1ccc([C@@H](O)c2cc(-c3ncnc4cc(N5CCOCC5)ccc34)c(F)cc2Cl)nn1 + CC(CO)NC(=O)c1cc(-c2ccc(Cl)cc2)nn(-c2cnn(C)c2)c1=O
IC50 [1]: > 10000 nM | IC50 [2]: > 10000 nM | IC50 [3]: > 10000 nM | IC50 [4]: > 10000 nM | IC50 [5]: > 10000 nM | viability, T/C [6]: 99.5% | viability, T/C [7]: 109% | viability, T/C [8]: 111% | viability, T/C [9]: 115% | viability, T/C [10]: 117% | viability, T/C [11]: 85.2% | viability, T/C [12]: 102% | viability, T/C [13]: 107% | viability, T/C [14]: 118% | viability, T/C [15]: 106% | viability, T/C [16]: 108% | viability, T/C [17]: 91.2% | viability, T/C [18]: 110% | viability, T/C [19]: 114% | viability, T/C [20]: 110% | viability, T/C [21]: 113% | viability, T/C [22]: 114% | viability, T/C [23]: 91.6% | viability, T/C [24]: 102% | viability, T/C [25]: 112% | viability, T/C [26]: 114% | viability, T/C [27]: 111% | viability, T/C [28]: 107% | viability, T/C [29]: 83.2% | viability, T/C [30]: 117% | viability, T/C [31]: 122% | viability, T/C [32]: 115% | viability, T/C [33]: 115% | viability, T/C [34]: 100% | viability, T/C [35]: 78%

CC(C)CC(NC(=O)C(Cc1ccccc1)NC(=O)c1cnccn1)B(O)O (configuration not stated) + CC(CO)NC(=O)c1cc(-c2ccc(Cl)cc2)nn(-c2cnn(C)c2)c1=O
IC50 [1]: 7.71 nM | IC50 [2]: 8.36 nM | IC50 [3]: 8.49 nM | IC50 [4]: 7.94 nM | IC50 [5]: 7.88 nM | viability, T/C (second compound 0.1 µM, first compound 0.000949 µM): 108% | viability, T/C (second compound 0.1 µM, first compound 0.003 µM): 103% | viability, T/C (second compound 0.1 µM, first compound 0.00949 µM): 38.4% | viability, T/C (second compound 0.1 µM, first compound 0.03 µM): 0.34% | viability, T/C (second compound 0.1 µM, first compound 0.0949 µM): 0.27% | viability, T/C (second compound 0.1 µM, first compound 0.3 µM): 0.18% | viability, T/C (second compound 0.316 µM, first compound 0.000949 µM): 114% | viability, T/C (second compound 0.316 µM, first compound 0.003 µM): 117% | viability, T/C (second compound 0.316 µM, first compound 0.00949 µM): 41.9% | viability, T/C (second compound 0.316 µM, first compound 0.03 µM): 0.39% | viability, T/C (second compound 0.316 µM, first compound 0.0949 µM): 0.19% | viability, T/C (second compound 0.316 µM, first compound 0.3 µM): 0.19% | viability, T/C (second compound 1 µM, first compound 0.000949 µM): 112% | viability, T/C (second compound 1 µM, first compound 0.003 µM): 112% | viability, T/C (second compound 1 µM, first compound 0.00949 µM): 43.3% | viability, T/C (second compound 1 µM, first compound 0.03 µM): 0.56% | viability, T/C (second compound 1 µM, first compound 0.0949 µM): 0.17% | viability, T/C (second compound 1 µM, first compound 0.3 µM): 0.33% | viability, T/C (second compound 3.16 µM, first compound 0.000949 µM): 117% | viability, T/C (second compound 3.16 µM, first compound 0.003 µM): 118% | viability, T/C (second compound 3.16 µM, first compound 0.00949 µM): 37.6% | viability, T/C (second compound 3.16 µM, first compound 0.03 µM): 1.26% | viability, T/C (second compound 3.16 µM, first compound 0.0949 µM): 0.23% | viability, T/C (second compound 3.16 µM, first compound 0.3 µM): 0.25% | viability, T/C (second compound 10 µM, first compound 0.000949 µM): 120% | viability, T/C (second compound 10 µM, first compound 0.003 µM): 127% | viability, T/C (second compound 10 µM, first compound 0.00949 µM): 35.9% | viability, T/C (second compound 10 µM, first compound 0.03 µM): 1.88% | viability, T/C (second compound 10 µM, first compound 0.0949 µM): 0.9% | viability, T/C (second compound 10 µM, first compound 0.3 µM): 0.37%

O=C(c1cc(Cc2n[nH]c(=O)c3ccccc23)ccc1F)N1CCN(C(=O)C2CC2)CC1 + Cc1cncc(-c2nc(NCCc3c[nH]c4ccccc34)c3ncn(C(C)C)c3n2)c1
IC50 [1]: > 10000 nM | IC50 [2]: > 10000 nM | IC50 [3]: > 10000 nM | IC50 [4]: > 10000 nM | IC50 [5]: < 31.6 nM | viability, T/C [6]: 125% | viability, T/C [7]: 119% | viability, T/C [8]: 133% | viability, T/C [9]: 125% | viability, T/C [10]: 120% | viability, T/C [11]: 131% | viability, T/C [12]: 115% | viability, T/C [13]: 126% | viability, T/C [14]: 123% | viability, T/C [15]: 126% | viability, T/C [16]: 128% | viability, T/C [17]: 120% | viability, T/C [18]: 112% | viability, T/C [19]: 123% | viability, T/C [20]: 112% | viability, T/C [21]: 112% | viability, T/C [22]: 121% | viability, T/C [23]: 108% | viability, T/C [24]: 80.2% | viability, T/C [25]: 82.3% | viability, T/C [26]: 82.8% | viability, T/C [27]: 85.1% | viability, T/C [28]: 79.3% | viability, T/C [29]: 77.9% | viability, T/C [30]: 10.6% | viability, T/C [31]: 18% | viability, T/C [32]: 9.64% | viability, T/C [33]: 16.9% | viability, T/C [34]: 15.3% | viability, T/C [35]: 13%

CC1(C)CCC(CN2CCN(c3ccc(C(=O)NS(=O)(=O)c4ccc(NCC5CCOCC5)c([N+](=O)[O-])c4)c(Oc4cnc5[nH]ccc5c4)c3)CC2)=C(c2ccc(Cl)cc2)C1
viability, T/C (compound 0.0316 µM): 99.3% and 109% and 105% | viability, T/C (compound 0.1 µM): 97.5% and 98.3% and 98% | viability, T/C (compound 0.316 µM): 102% and 108% and 99.2% | viability, T/C (compound 1 µM): 107% and 108% and 102% | viability, T/C (compound 3.16 µM): 101% and 97.3% and 81.5% | viability, T/C (compound 10 µM): 61.2% and 77.3% and 77.1% | IC50 (curve of compound): > 10000 nM

NS(=O)(=O)OCC1CC(n2ccc3c(NC4CCc5ccccc54)ncnc32)CC1O (configuration not stated) + CC(CO)NC(=O)c1cc(-c2ccc(Cl)cc2)nn(-c2cnn(C)c2)c1=O
IC50 [1]: 365 nM | IC50 [2]: 344 nM | IC50 [3]: 376 nM | IC50 [4]: 249 nM | IC50 [5]: 261 nM | viability, T/C [6]: 78.8% | viability, T/C [7]: 78.7% | viability, T/C [8]: 52.8% | viability, T/C [9]: 20.9% | viability, T/C [10]: 3.93% | viability, T/C [11]: 1.87% | viability, T/C [12]: 86.8% | viability, T/C [13]: 73.3% | viability, T/C [14]: 54.5% | viability, T/C [15]: 19.6% | viability, T/C [16]: 4.23% | viability, T/C [17]: 2.08% | viability, T/C [18]: 77.4% | viability, T/C [19]: 72.1% | viability, T/C [20]: 55.2% | viability, T/C [21]: 21.8% | viability, T/C [22]: 4% | viability, T/C [23]: 2.14% | viability, T/C [24]: 87.8% | viability, T/C [25]: 67.7% | viability, T/C [26]: 47.6% | viability, T/C [27]: 19.1% | viability, T/C [28]: 3.93% | viability, T/C [29]: 2.48% | viability, T/C [30]: 93% | viability, T/C [31]: 72.9% | viability, T/C [32]: 46.5% | viability, T/C [33]: 18.7% | viability, T/C [34]: 3.17% | viability, T/C [35]: 2.21%

COc1cccc2c1C(=O)c1c(O)c3c(c(O)c1C2=O)CC(O)(C(=O)CO)CC3OC1CC(N)C(O)C(C)O1 (configuration not stated) + Cc1cncc(-c2nc(NCCc3c[nH]c4ccccc34)c3ncn(C(C)C)c3n2)c1
IC50 [1]: 158 nM | IC50 [2]: 145 nM | IC50 [3]: 133 nM | IC50 [4]: < 31.6 nM | IC50 [5]: < 31.6 nM | viability, T/C [6]: 82.8% | viability, T/C [7]: 63.1% | viability, T/C [8]: 30.3% | viability, T/C [9]: 8.19% | viability, T/C [10]: 0.99% | viability, T/C [11]: 0.52% | viability, T/C [12]: 90% | viability, T/C [13]: 61.4% | viability, T/C [14]: 25.7% | viability, T/C [15]: 7.63% | viability, T/C [16]: 0.45% | viability, T/C [17]: 0.37% | viability, T/C [18]: 62.5% | viability, T/C [19]: 60.2% | viability, T/C [20]: 21.3% | viability, T/C [21]: 5.04% | viability, T/C [22]: 0.27% | viability, T/C [23]: 0.34% | viability, T/C [24]: 39.4% | viability, T/C [25]: 25.2% | viability, T/C [26]: 7.66% | viability, T/C [27]: 2.14% | viability, T/C [28]: 0.12% | viability, T/C [29]: 0.3% | viability, T/C [30]: 1.2% | viability, T/C [31]: 0.79% | viability, T/C [32]: 1.52% | viability, T/C [33]: 0.23% | viability, T/C [34]: 0.21% | viability, T/C [35]: 1.26%
